Laboratory results published in ChEMBL document CHEMBL1134878, “L-Cysteine based N-type calcium channel blockers: structure-activity relationships of the C-terminal lipophilic moiety, and oral analgesic efficacy in rat pain models” (Bioorg Med Chem Lett, 2002).

Experiments:
[1] = (§1) In vitro inhibition of calcium influx (L-type blocking activity) in AtT-20 mouse pituitary tumor-derived cells; conditions: AtT20
[2] = target: T1, Voltage-dependent N-type calcium channel subunit alpha-1B (Homo sapiens, UniProt Q00975); assay: In vitro inhibition of N-type calcium channel influx in IMR-32 human neuroblastoma cells; assay type: cell-based
Target sequence in this assay (Q00975 whole entry): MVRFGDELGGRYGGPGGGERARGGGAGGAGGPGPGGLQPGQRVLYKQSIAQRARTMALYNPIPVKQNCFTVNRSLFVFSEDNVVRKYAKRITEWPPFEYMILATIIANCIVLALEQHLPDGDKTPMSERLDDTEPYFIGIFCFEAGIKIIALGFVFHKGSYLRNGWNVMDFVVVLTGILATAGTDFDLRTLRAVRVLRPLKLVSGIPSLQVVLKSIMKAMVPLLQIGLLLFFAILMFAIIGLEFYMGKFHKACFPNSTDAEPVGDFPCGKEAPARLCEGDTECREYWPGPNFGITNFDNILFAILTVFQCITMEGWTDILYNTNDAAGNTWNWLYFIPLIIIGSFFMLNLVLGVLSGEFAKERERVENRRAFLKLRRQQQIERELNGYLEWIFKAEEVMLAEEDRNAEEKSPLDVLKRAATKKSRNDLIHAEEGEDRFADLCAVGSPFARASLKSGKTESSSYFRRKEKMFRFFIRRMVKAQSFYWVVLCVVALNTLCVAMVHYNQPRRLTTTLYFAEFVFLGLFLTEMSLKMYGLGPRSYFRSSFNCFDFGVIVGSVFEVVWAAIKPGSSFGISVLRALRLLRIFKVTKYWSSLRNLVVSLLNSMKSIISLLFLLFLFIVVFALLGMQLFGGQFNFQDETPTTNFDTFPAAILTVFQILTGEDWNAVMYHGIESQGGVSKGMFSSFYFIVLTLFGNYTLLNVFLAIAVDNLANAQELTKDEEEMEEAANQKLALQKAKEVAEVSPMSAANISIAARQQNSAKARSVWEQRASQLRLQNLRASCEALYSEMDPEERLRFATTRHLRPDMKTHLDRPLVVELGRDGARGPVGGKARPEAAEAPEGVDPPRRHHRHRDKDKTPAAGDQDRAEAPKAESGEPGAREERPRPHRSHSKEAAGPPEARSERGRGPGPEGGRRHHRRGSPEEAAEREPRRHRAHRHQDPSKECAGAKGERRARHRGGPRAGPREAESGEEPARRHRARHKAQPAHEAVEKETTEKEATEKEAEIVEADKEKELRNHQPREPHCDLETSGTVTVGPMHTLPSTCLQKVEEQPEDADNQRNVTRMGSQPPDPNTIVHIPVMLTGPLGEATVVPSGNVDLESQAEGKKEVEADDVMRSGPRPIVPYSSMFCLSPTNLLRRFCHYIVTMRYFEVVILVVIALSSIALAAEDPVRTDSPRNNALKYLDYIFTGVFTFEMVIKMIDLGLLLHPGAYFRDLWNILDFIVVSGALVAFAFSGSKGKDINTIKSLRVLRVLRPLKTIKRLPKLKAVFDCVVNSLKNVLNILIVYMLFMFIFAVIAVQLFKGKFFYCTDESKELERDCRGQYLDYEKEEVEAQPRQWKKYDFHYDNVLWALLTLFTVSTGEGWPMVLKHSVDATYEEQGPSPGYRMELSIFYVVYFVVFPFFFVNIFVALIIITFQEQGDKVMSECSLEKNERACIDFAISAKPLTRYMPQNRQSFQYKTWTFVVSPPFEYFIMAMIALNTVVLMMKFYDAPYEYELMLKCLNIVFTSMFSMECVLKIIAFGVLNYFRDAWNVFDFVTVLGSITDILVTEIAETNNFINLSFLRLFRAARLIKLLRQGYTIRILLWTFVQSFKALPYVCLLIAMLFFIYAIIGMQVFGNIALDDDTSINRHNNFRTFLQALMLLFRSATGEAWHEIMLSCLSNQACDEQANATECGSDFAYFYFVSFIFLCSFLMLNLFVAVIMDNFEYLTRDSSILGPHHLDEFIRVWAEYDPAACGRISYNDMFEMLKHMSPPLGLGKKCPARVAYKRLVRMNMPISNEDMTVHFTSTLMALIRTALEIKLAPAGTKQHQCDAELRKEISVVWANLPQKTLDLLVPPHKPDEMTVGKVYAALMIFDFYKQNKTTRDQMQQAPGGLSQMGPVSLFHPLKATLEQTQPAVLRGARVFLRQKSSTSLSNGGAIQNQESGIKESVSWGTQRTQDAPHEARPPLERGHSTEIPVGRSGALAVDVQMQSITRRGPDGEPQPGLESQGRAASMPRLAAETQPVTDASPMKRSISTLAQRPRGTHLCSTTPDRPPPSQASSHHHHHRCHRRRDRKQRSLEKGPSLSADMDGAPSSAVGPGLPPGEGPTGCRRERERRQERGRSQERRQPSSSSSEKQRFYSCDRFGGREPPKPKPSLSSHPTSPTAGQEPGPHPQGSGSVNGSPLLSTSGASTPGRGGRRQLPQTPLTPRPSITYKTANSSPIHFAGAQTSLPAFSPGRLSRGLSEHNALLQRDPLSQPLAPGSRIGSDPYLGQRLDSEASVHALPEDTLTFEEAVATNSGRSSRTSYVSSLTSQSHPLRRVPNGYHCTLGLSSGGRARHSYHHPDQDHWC

[3] = Selectivity IC50 ratio of L-type blocking activity (AtT-20 mouse pituitary tumor-derived cells) to that of N-type blocking activity (IMR-32 human neuroblastoma cells)
[4] = Partition coefficient (logP); assay type: physicochemical; conditions: octanol/water
[5] = as §1; assay type: functional; conditions: AtT20
[6] = Selectivity IC50 ratio of L-type [Ca2+] channel blocking activity (AtT-20 mouse pituitary tumor-derived cells) to that of N-type blocking activity (IMR-32 human neuroblastoma cells)
[7] = target: T1, Voltage-dependent N-type calcium channel subunit alpha-1B; assay: Percentage inhibition of N-type calcium channel influx in IMR-32 human neuroblastoma cells at 3 uM; assay type: cell-based
Target sequence in this assay (Q00975 whole entry, looked up): as the sequence (Q00975 whole entry) above

Rattus norvegicus [8] = assay: Minimum effective oral dose required for the antinociceptive effects on thermal hyperalgesia induced by CCI (chronic constriction injury) of the sciatic nerve in rat; assay type: functional; conditions: read-out: MED
Rattus norvegicus [9] = assay: Minimum effective oral dose required for the inhibition of paw flinching in rat formalin induced pain model; assay type: functional; conditions: read-out: MED

| SMILES | IC50 [1] [nM] | IC50 [2] [nM] | Ratio [3] | logP [4] | IC50 [5] [nM] | Ratio [6] | inhibition [7] [%] | minimal effective dose (Rattus norvegicus [8]) [mg/kg] | minimal effective dose (Rattus norvegicus [9]) [mg/kg] |
| --- | --- | --- | --- | --- | --- | --- | --- | --- | --- |
| CC(C)(C)OC(=O)N1CSC[C@H]1C(=O)N[C@@H](CSCC1CCCCC1)C(=O)NC1CCN(c2ccccc2)CC1 | 540 | 150 | 3.6 | – | – | – | – | – | – |
| CC(C)(C)OC(=O)N1CSC[C@H]1C(=O)N[C@@H](CSCC1CCCCC1)C(=O)NC1CCN(Cc2ccccc2)CC1 | – | 330 | – | 3.5 | 5000 | 15 | 75 | 30 | 10 |
| CC(C)(C)OC(=O)N1CSC[C@H]1C(=O)N[C@@H](CSCC1CCCCC1)C(=O)N1CCN(Cc2ccccc2)CC1 | 1000 | 370 | 2.7 | – | – | – | – | – | – |
| CC(C)(C)OC(=O)N1CSC[C@H]1C(=O)N[C@@H](CSCC1CCCCC1)C(=O)NCc1ccc(Oc2ccccc2)cc1 | 1700 | – | 12 | 5 | – | – | – | – | > 100 |
| CC(C)(C)OC(=O)N1CSC[C@H]1C(=O)N[C@@H](CSCC1CCCCC1)C(=O)N1CCC(NCc2ccccc2)CC1 | – | 500 | – | – | 2600 | 5.2 | – | – | – |
| CC(C)(C)OC(=O)N1CSC[C@H]1C(=O)N[C@@H](CSCC1CCCCC1)C(=O)N1CCC(Nc2ccccc2)CC1 | – | 660 | – | – | 540 | 0.82 | – | – | – |
| CC(C)(C)OC(=O)N1CSC[C@H]1C(=O)N[C@@H](CSCC1CCCCC1)C(=O)NCCNCc1ccccc1 | 2400 | 380 | 6.3 | 2.8 | – | – | – | – | – |
| CC(C)(C)OC(=O)N1CSC[C@H]1C(=O)N[C@@H](CSCC1CCCCC1)C(=O)N1CCN(c2ccccc2)CC1 | 580 | 390 | 1.5 | – | – | – | – | – | – |
